Consider 19 compounds from PMC8286840, “Identifying SARS-CoV-2 antiviral compounds by screening for small molecule inhibitors of Nsp3 papain-like protease” (Biochemical Journal, 2021).

The target of assay [1] is T1, SARS-CoV-2 PLpro (nsp3 1564–1878) (Severe acute respiratory syndrome coronavirus 2, UniProt P0DTD1). Kind of assay: biochemical. Also on record: FRET-quenched peptide (Pro3) cleavage by PLpro, 10 min pre-incubation, slope over 20 min, normalised to no-compound control. The conditions noted are these: read-out: % of control remaining.
In assay [2] the target is T1, SARS-CoV-2 PLpro (nsp3 1564–1878). The experiment in a line: biochemical. Also on record: FRET-quenched peptide (Pro3) cleavage by PLpro, 10 min pre-incubation, slope over 20 min, normalised to no-compound control. As to conditions: read-out: % of control remaining. The source holds these as a separate data set.

Counter-ions that a name gives are not always drawn. Like-named read-outs stand apart in the source and are kept apart here. Where a SMILES comes first, the peptide text is derived from it. The star is where a group is joined. Cbz = O=C(OCc1ccccc1)*

For `CN(C)CC[C@@H](c1ccc(Cl)cc1)c1ccccn1` [Dexchlorpheniramine (maleate)], the remaining activity at 1.25 µM in assay [1] (Well no.=6653, low concentration screen) turned out to be 103%. Further, the remaining activity at 3.75 µM in assay [2] (Well no.=6653, high concentration screen) was found to be 101%.
Regarding `CC(C)[C@H](NC(=O)OCc1ccccc1)C(=O)N[C@H](C=O)Cc1ccccc1` [MDL 28170] (Cbz-Val-Phe-aldehyde), the remaining activity at 1.25 µM in assay [1] (Well no.=790, low concentration screen) came out at 106%. Moreover, the remaining activity at 3.75 µM in assay [2] (Well no.=790, high concentration screen) turned out to be 105%.
Turning to `O=c1ncccn1[C@@H]1O[C@H](CO)[C@@H](O)[C@H]1O` [Zebularine], the remaining activity at 1.25 µM in assay [1] (Well no.=7818, low concentration screen) was found to be 97%. Also, the remaining activity at 3.75 µM in assay [2] (Well no.=7818, high concentration screen) came to 96.3%.
On to `COC(=O)c1ccc2c(C(=Nc3ccc(N(C)C(=O)CN4CCN(C)CC4)cc3)c3ccccc3)c(O)[nH]c2c1` [Vargatef], for which, in assay [1] (Well no.=2847, low concentration screen), the remaining activity at 1.25 µM is 103%. The remaining activity at 3.75 µM in assay [2] (Well no.=2847, high concentration screen) was determined as 104%.
Turning to `O=C(Nc1cccc(Nc2cc(Nc3cccc(C(F)(F)F)c3)ncn2)c1)C1CC1` [EGFR Inhibitor], the remaining activity at 1.25 µM in assay [1] (Well no.=2403, low concentration screen) is 106%. Also, in assay [2] (Well no.=2403, high concentration screen), the remaining activity at 3.75 µM is 103%.
Regarding `O=C1CCC(c2ccccc2)(C2CCN(Cc3ccccc3)CC2)C(=O)N1` (stereo not drawn) [Benzetimide (hydrochloride)], the remaining activity at 1.25 µM in assay [1] came to 99.9%. Further, the remaining activity at 3.75 µM in assay [2] stood at 97.6%.
For `COc1ccc(C[C@@H](C)NC[C@H](O)c2ccc(O)c(NC=O)c2)cc1` [Formoterol hemifumarate], in assay [1] (Well no.=5014, low concentration screen), the remaining activity at 1.25 µM is 109%. The remaining activity at 3.75 µM in assay [2] (Well no.=5014, high concentration screen) was found to be 104%.
Take `COc1cc2nc(N3CCN(C(=O)C4COc5ccccc5O4)CC3)nc(N)c2cc1OC` (stereo not drawn) [Doxazosin]: the remaining activity at 1.25 µM in assay [1] (Well no.=1988, low concentration screen) came out at 103%. For the same compound, in assay [2] (Well no.=1988, high concentration screen), the remaining activity at 3.75 µM is 104%.
For `O=C(Nc1ccc(S(=O)(=O)Nc2nccs2)cc1)C(c1ccccc1)c1ccccc1` [ICA-121431], the remaining activity at 1.25 µM in assay [1] (Well no.=7878, low concentration screen) came out at 98.2%. Further, in assay [2] (Well no.=7878, high concentration screen), the remaining activity at 3.75 µM was found to be 99.6%.
For `COc1ccc(NS(=O)(=O)c2sc3ccc(Cl)cc3c2C)cc1N1CCNCC1` [SB 271046 (Hydrochloride)], the remaining activity at 1.25 µM in assay [1] (Well no.=7863, low concentration screen) came out at 102%. Further, the remaining activity at 3.75 µM in assay [2] (Well no.=7863, high concentration screen) was 101%.
Regarding `CCCCNc1ccc(C(=O)OCCN(C)C)cc1` [Tetracaine hydrochloride], in assay [1] (Well no.=1228, low concentration screen), the remaining activity at 1.25 µM came to 97.1%. Besides, the remaining activity at 3.75 µM in assay [2] (Well no.=1228, high concentration screen) worked out at 97.5%.
`Cc1cc(=O)oc2cc(O)ccc12` [4-Methylumbelliferone]: the remaining activity at 1.25 µM in assay [1] (Well no.=3342, low concentration screen) worked out at 94%. Besides, the remaining activity at 3.75 µM in assay [2] (Well no.=3342, high concentration screen) was found to be 91.9%.
For `CC/C(=C(\c1ccccc1)c1ccc(OCCN(C)C)cc1)c1ccccc1` [Tamoxifen], the remaining activity at 1.25 µM in assay [1] (Well no.=2240, low concentration screen) amounted to 90.7%. The remaining activity at 3.75 µM in assay [2] (Well no.=2240, high concentration screen) turned out to be 93.3%.
For `CCCCC[C@H](O)/C=C/[C@H]1C=CC(=O)[C@@H]1CCCCCCC(=O)O` [Prostaglandin A1], the remaining activity at 1.25 µM was determined as 99.1% in assay [1] (Well no.=3086, low concentration screen) and 89.4% in assay [1] (Well no.=4235, low concentration screen). Also, the remaining activity at 3.75 µM in assay [2] (Well no.=3086, high concentration screen) is 101%; in assay [2] (Well no.=4235, high concentration screen), 94.9%.
With `O=C(O)Cc1ccccc1Nc1c(Cl)cccc1Cl` [Diclofenac sodium], the remaining activity at 1.25 µM in assay [1] (Well no.=580, low concentration screen) amounted to 94%. Further, in assay [2] (Well no.=580, high concentration screen), the remaining activity at 3.75 µM was found to be 96.6%.
For the compound `COc1cc(C=CC(=O)O)cc(OC)c1O` (stereo in doubt) [Sinapinic acid], in assay [1] (Well no.=6150, low concentration screen), the remaining activity at 1.25 µM stood at 102%. Besides, the remaining activity at 3.75 µM in assay [2] (Well no.=6150, high concentration screen) worked out at 102%.
Take `CCOc1ccc2c(c1)C(C)=CC(C)(C)N2` [Ethoxyquin]: the remaining activity at 1.25 µM in assay [1] (Well no.=4145, low concentration screen) came out at 93.7%. In addition, the remaining activity at 3.75 µM in assay [2] (Well no.=4145, high concentration screen) worked out at 96.9%.
Regarding `CC(C)c1noc(N2CCC(COc3ccc(-c4ccc(S(C)(=O)=O)cc4)nc3)CC2)n1` [GSK1292263], the remaining activity at 1.25 µM worked out at 93.1% in assay [1] (Well no.=5106, low concentration screen) and 105% in assay [1] (Well no.=8539, low concentration screen). Also, the remaining activity at 3.75 µM in assay [2] (Well no.=5106, high concentration screen) stood at 97.1%; in assay [2] (Well no.=8539, high concentration screen) it was 104%.
`CC(=O)OCC(=O)[C@@]1(O)[C@H](C)C[C@H]2[C@@H]3CCC4=CC(=O)C=C[C@]4(C)[C@@]3(F)[C@@H](O)C[C@@]21C` [Dexamethasone acetate]: the remaining activity at 1.25 µM in assay [1] (Well no.=5357, low concentration screen) came out at 99.3%. In addition, the remaining activity at 3.75 µM in assay [2] (Well no.=5357, high concentration screen) turned out to be 98%.
